Values joined by “and” are separate entries in the source; they are usually repeats but may differ in a detail not shown here. Equal entries are not always repeated. Bounds are passed on as bounds.

For this data set the following is noted: rat; liver microsomes; pH 7.4; 15.0 min; 1.0 µM.
`CN1C(=O)CN=C(c2ccc[nH]2)c2cc(Cl)ccc21` gave a half-life of 16 min.
`CC1(C)C(=O)NC2=C1C(=O)C(=O)c1ccccc12`: the half-life is > 30 min.
Turning to `NC(=O)C1CCN(c2nc(-c3cccc4sc5ccccc5c34)cs2)CC1`, the half-life is > 30 min.
In the case of `COc1cccc(CNc2ccc(S(=O)(=O)Nc3ccc4ccccc4c3)cc2)c1O` it was 10 min; in that of `CCCNc1oc(-c2cccc3ccccc23)nc1C#N`, 13 min; in that of `Cn1c(C(=O)NCCc2ccccn2)nc2nc(-c3ccccc3)c(Cl)cc21`, 7.82 min.
Take `Fc1ccc(-c2ccc(Nc3nc(-c4ccncc4)nc4ccccc34)cc2F)c(F)c1`: the half-life turned out to be 23 min.
For `Cc1cccc(-c2csc(N3CCC(C(N)=O)CC3)n2)c1`, the half-life was found to be 1.66 min. Compared with the last compound, the half-life is about 14-fold lower.
In turn, `Cc1ccc(-c2cc3c(nn2)-c2ccccc2C3=O)cc1` showed a half-life of 3.4 min. Compared with the last compound, the half-life is about 2-fold higher.
In the case of `O=C(CSc1nc(-c2ccc(F)cc2)[nH]c1-c1ccc(F)cc1)Nc1ccc2c(c1)OCCO2` it was 1.19 min; in that of `C=C1C(=O)OC2C1CCC(C)C1(O)C=CC(=O)C21C` (stereo not given), > 30 min; in that of `CC(C)CNc1ncnc2onc(-c3ccc(Cl)cc3)c12`, 12 min.
In the case of `O=C(C1CCN(c2nc(-c3ccc(Br)cc3)cs2)CC1)N1CCOCC1`, the half-life was > 30 min.
For the compound `Cc1ccnc(NC(=S)N2CCN(c3ccc(N)cc3)CC2)c1`, the half-life was > 30 min.
Under `Cc1ccc(S(=O)(=O)Nc2cc(C(=O)Nc3nc(-c4ccccc4)cs3)ccn2)cc1` stands > 30 min; under `COc1cccc(Cn2c(=O)n(-c3cccc(Cl)c3C)c(=O)c3c4c(sc32)CN(C(C)=O)CC4)c1`, 3.17 min.
In the case of `O=C(Nc1ccc(S(=O)(=O)Nc2nccs2)cc1)c1ccc(-c2ccccc2)cc1` it was > 30 min.
Take `O=C(Nc1ccc2oc(-c3ccccc3F)nc2c1)c1ccc([N+](=O)[O-])o1`: the half-life is > 30 min.
Under `COc1ccc(NC(C)=O)cc1S(=O)(=O)Nc1ccc(Br)cc1` stands > 30 min; under `O=C1CCCC2=C1C(c1ccccc1Cl)N=C(Nc1nc3ccccc3o1)N2` (stereo not given), 9.38 min.
Compound `CCOc1ccc(NC(=O)c2ccc(F)c(S(=O)(=O)N(CC)Cc3ccccc3)c2)cc1` had a half-life of 1.3 min.
`CCc1ccc(-n2nnc(-c3nsc(NC(=O)c4ccccc4Cl)n3)c2C)cc1` yielded a half-life of 10.9 min.
`Nc1nc2c(s1)C(c1cccc(Cl)c1Cl)CC(=O)N2` (stereo not given) displayed a half-life of 26 min.
Turning to `Cc1ccc(CN2CCOC[C@H]2c2ncc(-c3cccc(F)c3)[nH]2)cc1`, the half-life stood at 2.16 min.
On to `CCC(=O)NC(c1ccc(OC)cc1)c1cc(Cl)c2cccnc2c1O` (stereo not given), for which the half-life turned out to be 4.41 min. This half-life is about 2-fold higher than that of the compound before.
Under `Cc1ccccc1C(=O)N1CCc2cc(-c3nc(NC(=O)Cc4ccc5ccccc5c4)sc3C)ccc21` stands > 30 min.
Under `COc1ccccc1Nc1ccnc(N2CCN(C(=O)c3ccc(F)cc3)CC2)n1` stands 11.2 min.
Under `O=C(NCc1ccncc1)c1nc(-c2cccnc2)c2cnccn12` stands > 30 min.
On to `CCN(CCN(C)C)C(=O)C1CCN(S(=O)(=O)c2c(C)noc2/C=C/c2ccccc2F)CC1`, for which the half-life is > 30 min.
Under `Cc1ccc(NC(=O)c2ccncc2NS(=O)(=O)c2ccc(C)cc2)cc1` stands 2.9 min.
For the compound `Cc1cccc(-n2cnc3cc(C(=O)N4CCCC(C(F)(F)F)C4)ccc32)c1` (stereo not given), the half-life is 1.3 min.
Under `O=C1CCCC2=C1C(c1[nH]ncc1Cl)N=C(Nc1nc3cc([S+](=O)([O-])N4CCOCC4)ccc3o1)N2` (stereo not given) stands 9.4 min; under `CC[C@H]1C=CC=CC[C@@H](C)[C@H](O)[C@@](C)(O)C(=O)[C@@H](C)[C@H](O)[C@@H](C)C(=O)[C@@H](C)[C@H](O)[C@@H](C)C=CC(=O)O[C@@H]2[C@@H](C)[C@H](CC1)O[C@]1(CC[C@H](C)[C@H](C[C@@H](C)O)O1)[C@H]2C`, > 30 min.
Under `N#Cc1nc(-c2cccc3ccccc23)oc1NCc1ccccc1` stands 8.6 min; under `Cc1sc(NC(=O)Cc2ccc3c(c2)OCO3)nc1-c1ccc2c(c1)CCN2C(=O)c1ccccc1F`, 20 min; under `CNCc1ccc(-c2cc(-c3nc(-c4ccc(S(=O)(=O)C(C)C)cc4)cnc3N)on2)cc1`, > 30 min.
For the compound `Cc1c(C)n(Cc2ccc(-c3ccccc3C(=O)O)cc2)c2ccc(C(=O)N[C@@H](C)c3ccc([N+](=O)[O-])cc3)cc12`, the half-life is > 30 min.
In the case of `Cc1csc2c1c(=O)n(O)c(=O)n2Cc1ccccc1` it was > 30 min.
Consider `Cn1c(=O)c2c(-c3ccc(Cl)cc3)n(CCc3ccccc3)cc2n(C)c1=O`, for which the half-life worked out at 1.11 min.
Regarding `O=C1Nc2c(Cl)cccc2/C1=C\c1cc(Cl)c(O)c(Cl)c1`, the half-life is > 30 min.
In the case of `CC(=O)Nc1cc(-c2nc(Nc3ccc(F)c(F)c3)c3ccccc3n2)ccn1` it was 12 min.
In turn, `Cc1nn(CCc2nc(-c3ccccc3F)cs2)c2[nH]c(=O)cc(C(F)(F)F)c12` registered a half-life of 9.3 min.
Under `Cc1ccc(OCCn2c(CCNC(=O)c3ccc(Cl)cc3)nc3ccccc32)cc1` stands 1.8 min; under `O=C(NCCCn1ccnc1)c1ccc(-c2ncc3cnc(-c4cccc(F)c4)cn23)cc1`, 22.5 min; under `Fc1ccc(Nc2nc(-c3ccnc(N4CCCCC4)c3)nc3ccccc23)cc1F`, 26 min.
For `Cc1ccc(S(=O)(=O)Nc2ccc(C(=O)Nc3nc(-c4ccccc4)cs3)c(Cl)c2)cc1`, the half-life is 23 min.
As to `Cc1ccc(C)c(S(=O)(=O)NCC2CN(Cc3ccccc3)CCO2)c1` (stereo not given), the half-life is 1.6 min.
In the case of `Cc1cc(NS(=O)(=O)c2ccc(NCCc3ccc(Cl)c(Cl)c3)cc2)no1` it was 12 min; in that of `Oc1cccc(-c2nc(N3CCOCC3)c3oc4ncccc4c3n2)c1`, 21.8 min; in that of `CN(C)c1cccc(-c2ncc(F)c(N3CCC(C(N)=O)CC3)n2)c1`, 2.08 min.
In the case of `CC(C)=CCNc1ncnc2nc[nH]c12` it was > 30 min.
In turn, `N#Cc1ccccc1Nc1ncc(-c2cccc3ccccc23)o1` displayed a half-life of 5.8 min.
`COc1ccc(-c2noc([C@@H]3Cc4nc[nH]c4CN3C(=O)NC3CCCCC3)n2)cc1`: the half-life was found to be 6.59 min.
Under `O=C(Nc1cccc(S(=O)(=O)C(F)(F)F)c1)c1ccccc1NC(=O)c1ccccc1OCC(F)(F)F` stands > 30 min; under `CN(C(=O)CNC(=O)c1cc(F)ccc1OCC(=O)Nc1ccc(I)cc1)c1ccc(F)cc1`, 1.74 min.
Under `NC[C@H](O)c1ccc(O)c(O)c1` stands 13.4 min; under `Nc1ncccc1-c1nc2ccc(-c3ccccc3)nc2n1-c1ccc(C2(N)CCC2)cc1`, > 30 min.
In the case of `O=C(Nc1ccc(S(=O)(=O)Nc2nccs2)cc1)c1ccnc(-c2ccccc2)c1` it was > 30 min; in that of `COc1ccc(-n2nc(C3CCCN(C(=O)Cc4ccccn4)C3)[nH]c2=O)cc1` (stereo not given), > 30 min.
Take `CC(C)Nc1oc(-c2cccc3ccccc23)nc1C#N`: the half-life was determined as 24 min.
Take `COc1ccc(-c2nc3sc(CCNC(=O)C(C)(C)C)c(C)n3n2)cc1`: the half-life came to 9.33 min.
Under `O=C(Nc1nnc(-c2ccco2)o1)c1ccc(Cl)cc1` stands 10.8 min; under `CC(=O)c1c(C)[nH]c(C(=O)Nc2cccc([S+](=O)([O-])Nc3ccncc3)c2)c1C`, > 30 min.
Turning to `COc1c(C)cc(NC(=O)c2nn(Cc3ccc(F)cc3)c3c2CN(C(=O)c2ccc[nH]2)C[C@]3(C)C(N)=O)cc1C`, the half-life was > 30 min.
Turning to `CN=C1CN=C(c2ccc[nH]2)c2cc(Cl)ccc2N1`, the half-life was > 30 min and 23 min.
Under `CC(=O)Nc1ccc(S(=O)(=O)Nc2nccs2)cc1` stands > 30 min.
In the case of `CCc1ccc(C2C(C(=O)Nc3ccccc3OC)=C(C)Nc3c(C(=O)Nc4ccc(C)cc4)cnn32)cc1` (stereo not given) it was 2.75 min; in that of `Cn1cnc(S(=O)(=O)Nc2cnccc2C(=O)Nc2nc(-c3ccccc3)cs2)c1`, > 30 min; in that of `CCc1ccccc1-n1c(SCC(=O)Nc2ccc(C)cc2)nc2n[nH]c(C)c2c1=N`, 1.25 min.
The compound `Cc1cc(-c2nnc3n2CCCCC3)c(C)n1-c1ccc(C(C)(C)C)cc1` registered a half-life of 1.9 min.
In the case of `COc1ccccc1-n1cnc2cc(C(=O)N3CCCCC3)ccc21` it was 3.2 min; in that of `CC(=O)c1cccc(-c2csc(N3CCC(C(N)=O)CC3)n2)c1`, 2.21 min.
In the case of `COc1cccc(CNc2ccc(S(=O)(=O)Nc3ccc(N4CCNCC4)cc3)cc2)c1O` it was > 30 min; in that of `COc1cccc(C(=O)Nc2nc(-c3nnn(-c4ccccc4C(F)(F)F)c3C)ns2)c1`, > 30 min; in that of `CC[C@H](CO)Nc1nc(NCc2ccccc2)c2ncn(C(C)C)c2n1`, 5.51 min.
Under `Cc1ccnc(NC(=S)N2CCN(c3cc(F)cc(Cl)c3)CC2)c1` stands 21 min; under `COc1ccc(-c2ccc3nc(-c4cc(F)ccc4F)oc3c2)c(OC)c1OC`, > 30 min; under `COc1cccc(CNc2ccc(S(=O)(=O)Nc3nc(C)cs3)cc2)c1O`, > 30 min.
`Cc1cc(-c2nnc3n2CCCCC3)c(C)n1-c1ccncc1` gave a half-life of 14 min.
Under `COc1ccc(-c2nc3ccccc3s2)cc1NC(=O)c1ccc(F)cc1` stands > 30 min; under `Cn1c(=O)cc(C(=O)NC2CCCc3c2[nH]c2c(Cl)cccc32)c2ccccc21` (stereo not given), 10.1 min; under `O=C(CCCN1CCC2(CC1)C(=O)N(Cc1cccc(F)c1)CN2c1ccccc1)c1ccc(F)cc1`, 1.65 min.
Consider `COc1cccc(-n2nc(C(=O)O)cc2-c2ccc(C3CCCCC3)c(Cl)c2)c1`, for which the half-life is > 30 min.
In the case of `CCOC(=O)Nc1cc(-c2ccc(C)c(NS(C)(=O)=O)c2)nn2c(C)nnc12`, the half-life was > 30 min.
`O=C(c1cccs1)c1nonc1C(=O)c1cccs1` gave a half-life of 1.49 min.
Compound `CC(=O)C1CCN(c2ncc(-c3cccc(N(C)C)c3)s2)CC1` yielded a half-life of 2.51 min.
In turn, `CC(C)Oc1cccc(C2CC(=O)Nc3cc4c(cc32)OCO4)c1` (stereo not given) displayed a half-life of 3.46 min.
For the compound `O=C1NCc2cc(-c3cc4c(ccn4Cc4ccncc4)c(N4CCOCC4)n3)ccc21`, the half-life stood at 13.4 min.
Turning to `COc1ncc(-c2ccc3c(Nc4cc(Oc5cc(F)cc(F)c5)cc(C(=O)O)c4)c(S(=O)(=O)NC4CC4)cnc3c2)c(OC)n1`, the half-life was found to be 9.87 min.
Regarding `Nc1ncc(S(=O)(=O)N2CCOCC2)s1`, the half-life was > 30 min.

Source of the values: PubChem BioAssay AID1508591.
